The results in this text go back to US20190062305A1, “PYRIDYL OR PYRAZINYL COMPOUNDS CARRYING A METHYL-BOUND ALPHA-AMINO ACID AMIDE GROUP” (ABBVIE DEUTSCHLAND GMBH & CO. KG, priority 2015, published 2019).

Counter-ions that a name gives are not always drawn. Bounds are passed on as bounds.

In one series the target is T1, 5-HT2C receptor (Homo sapiens, UniProt P28335).
T1 construct: host or cells: U2OS
Briefly: Human 5-HT2C functional assay (beta-arrestin2 recruitment, U2OS_HTR2C_β-Arrestin cells). In kind it is cell-based. The following applies: for EC50: beta-arrestin2 recruitment, U2OS_HTR2C_β-Arrestin cells, 1.5 h incubation, read-out: EC50 5-HT2C (potency in functional assay); for Emax: relative efficacy vs response to 10 μM 5-HT or maximal 5-HT effect (100%). How it is done:
The functional activity of compounds of formula I was assayed by incubation with U2OS_HTR2C_β-Arrestin cells (DiscoverX, 93-0289C3) to induce beta-arrestin2 recruitment to the 5-HT2C receptor. The agonist-induced recruitment and proximity of the receptor and beta-arrestin2 leads to complementation and formation of active β-galactosidase. The enzyme complementation results in enzyme activity, which is measured following the termination of the agonist incubation using DiscoveRx's detection reagent, which contains a chemiluminescent substrate which produces a high intensity signal. Cells were plated and a medium-change to a 1% serum containing medium was performed 24h later. The next day, test compounds were added and incubated for 1.5 h before addition of detection reagent.
The response produced was measured and compared with the response produced by 10 [mu]M 5-HT or the maximal effect induced by 5-HT (defined as 100%) to which it was expressed as a percentage response (relative efficacy). Dose response curves were constructed using Graphpad Prism (Graph Software Inc.) or using in house adapted software using a 4 parameter dose response model with variable slope (fit=(Bottom+(Top-Bottom)/(1+10^∧((Log EC50−x)*HillSlope))res=(y-fit)). Results are compiled in the table below.

Series [1] is described as follows: Metabolic stability in human liver microsomes, unbound intrinsic clearance (Cl int/fu mic). In kind it is in vitro ADME. The following applies: human, liver microsomes, pH 7.4, human liver microsomes 0.25 mg/mL, 0.5 μM compound, NADPH, read-out: Cl int, mic unb. (h) [l/h/kg] (unbound intrinsic clearance, human). The procedure:
Samples of the tested compounds (0.5 μM) were preincubated together with human liver microsomes (0.25 mg of microsomal protein/mL) in 0.05 M potassium phosphate buffer of pH 7.4 in microtiter plates at 37° C. for 5 minutes. The reaction was started by adding NADPH (1.0 mM). After 0, 5, 10, 15, 20 and 30 minutes, an aliquot was removed, the reaction was cooled and stopped by adding twice the amount of quench solution consisting of acetonitrile/methanol 1:1, and containing 0.2 μM carbutamide as internal standard. The samples were frozen until analyzed. The remaining concentration of undegraded test substance was determined by liquid chromatography-tandem mass spectrometry (LC-MS/MS). The half-life (t1/2) was determined from the gradient of the ratio of the signal of (test substance/internal standard)/unit time plot, allowing the calculation of the half-life of the test substance, assuming first order kinetics, from the decrease in the concentration of the compound with time. The microsomal clearance ([…]) was calculated as follows: […]=((ln(2)/t 1⁄2)/Microsomal Protein Concentration (mg/ml))*1000, leading to the unit of uL/min/mg. The scaled clearance (mClin_scaled) was calculated as […]_scaled=m CLint*(Microsomal Yield (mg/kg BW))/1000000*60, leading to the units L/h/kg. The Microsomal Yield is defined by the specifics of the used microsomes. Calculations were modified from references: Di, The Society for Biomolecular Screening, 2003, 453-462; Obach, D M D, 1999 vol 27. N 11, 1350-1359. A suspension of 0.25 mg/ml microsomal protein spiked with 0.5 μM of test compound was pipetted on one side of a HTDialysis device (HTDialysis LLC, 37 Ledgewood Drive, Gales Fery CT 06335) separated by a membrane with a MWcut off 12-14 K. 50 mM K-Phosphate buffer (pH 7.4) was added on the other side of the well. After incubation at 37° C. for 4 h while shaking at 150 rpm, aliquots of both sides were taken, quenched with MeOH/ACN 1:1 and 0.2 μM of internal standard and frozen until analysis by LCMSMS Cl int unbound=Cl int/fu mic

T1 sequence (P28335 33-458): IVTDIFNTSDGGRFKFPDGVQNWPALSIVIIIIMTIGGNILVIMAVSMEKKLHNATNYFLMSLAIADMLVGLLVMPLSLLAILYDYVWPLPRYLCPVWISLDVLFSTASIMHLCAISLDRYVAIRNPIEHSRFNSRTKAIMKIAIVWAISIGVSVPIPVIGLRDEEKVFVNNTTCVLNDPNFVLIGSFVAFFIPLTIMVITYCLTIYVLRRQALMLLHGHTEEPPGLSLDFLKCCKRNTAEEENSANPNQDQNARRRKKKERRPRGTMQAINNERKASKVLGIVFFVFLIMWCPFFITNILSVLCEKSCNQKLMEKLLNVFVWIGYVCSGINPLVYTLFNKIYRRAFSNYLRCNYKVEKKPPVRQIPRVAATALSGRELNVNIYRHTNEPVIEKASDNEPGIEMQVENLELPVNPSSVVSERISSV
T1 sequence (P32121 whole entry partner): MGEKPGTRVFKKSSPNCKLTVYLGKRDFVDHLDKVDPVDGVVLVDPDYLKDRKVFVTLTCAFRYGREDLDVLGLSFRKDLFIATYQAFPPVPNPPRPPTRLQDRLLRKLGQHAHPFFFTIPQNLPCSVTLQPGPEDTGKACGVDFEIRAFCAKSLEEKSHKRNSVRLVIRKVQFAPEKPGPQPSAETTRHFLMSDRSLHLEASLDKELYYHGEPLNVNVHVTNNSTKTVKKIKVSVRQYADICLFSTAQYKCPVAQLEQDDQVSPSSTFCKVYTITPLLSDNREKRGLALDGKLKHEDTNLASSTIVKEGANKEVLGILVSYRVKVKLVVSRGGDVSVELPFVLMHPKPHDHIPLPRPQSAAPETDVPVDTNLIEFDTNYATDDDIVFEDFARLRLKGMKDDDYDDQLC

Regarding `COc1nc(NC2CCC(C(F)(F)F)CC2)c(F)cc1CN(C)C(=O)[C@@H]1CCCN1` (mixture of isomers) [Example 157, (2S)—N-[[5-fluoro-2-methoxy-6-[[4-(trifluoromethyl)cyclohexyl]amino]-3-pyridyl]methyl]-N-methyl-pyrrolidine-2-carboxamide; 2,2,2-trifluoroacetic Acid], on 5-HT2C receptor, the EC50 lay within 200 to 1000 nM and the Emax was in the range of 50 to 70%. Also, the CLint scaled at 0.5 μM in series [1] is 5 to 50 L/h/kg.
Taken in the same sequence, the figures for `COc1nc(NCc2ccc(F)cc2)c(F)cc1CNC(=O)[C@@H]1CCCN1` [Example 177, (2S)—N-[[5-Fluoro-6-[(4-fluorophenyl)methylamino]-2-methoxy-3-pyridyl]methyl]-pyrrolidine-2-carboxamide; 2,2,2-trifluoroacetic Acid] were 20 to 200 nM, above 70% and below 5 L/h/kg.
Consider `COc1nc(OC2CCC(O)CC2)c(F)cc1CNC(=O)[C@@H]1CCCN1` (stereo partly drawn) [Example 81, (2S)—N-[[5-Fluoro-6-(4-hydroxycyclohexoxy)-2-methoxy-3-pyridyl]methyl]-pyrrolidine-2-carboxamide; 2,2,2-trifluoroacetic Acid], for which, on 5-HT2C receptor, the EC50 fell in the range of 200 to 1000 nM and the Emax is above 70%. The CLint scaled at 0.5 μM in series [1] is below 5 L/h/kg.
The like results for `COc1nc(OC2CCC(F)(F)CC2)c(F)cc1CNC(=O)[C@@H]1CCCN1C` [Example 10, (2S)—N-[[6-(4,4-Difluorocyclohexoxy)-5-fluoro-2-methoxy-3-pyridyl]methyl]-1-methyl-pyrrolidine-2-carboxamide; Fumaric Acid] were, in that order, below 20 nM, above 70% and 5 to 50 L/h/kg.
Taken in the same sequence, the figures for `COc1nc(OCC2CCC(F)(F)CC2)c(F)cc1CNC(=O)[C@@H]1CCCN1C` [Example 9, (2S)—N-[[6-[(4,4-Difluorocyclohexyl)methoxy]-5-fluoro-2-methoxy-3-pyridyl]methyl]-1-methyl-pyrrolidine-2-carboxamide; Fumaric Acid] were below 20 nM, above 70% and 5 to 50 L/h/kg.
With `COc1nc(OC2CCC(CF)CC2)c(F)cc1CNC(=O)[C@@H]1CCCN1` (stereo partly drawn) [Example 75, (2S)—N-[[5-fluoro-6-[4-(fluoromethyl)cyclohexoxy]-2-methoxy-3-pyridyl]methyl]-pyrrolidine-2-carboxamide; 2,2,2-trifluoroacetic Acid], on 5-HT2C receptor, the EC50 was below 20 nM and the Emax is above 70%. In series [1], the CLint scaled at 0.5 μM was 5 to 50 L/h/kg.
Taken in the same sequence, the figures for `COc1nc(N2CCC(F)(F)CC2)c(F)cc1CNC(=O)[C@@H]1CCCN1` [Example 134, (2S)—N-[[6-(4,4-Difluoro-1-piperidyl)-5-fluoro-2-methoxy-3-pyridyl]methyl]-pyrrolidine-2-carboxamide; 2,2,2-trifluoroacetic Acid] were below 20 nM, above 70% and below 5 L/h/kg.
Take `COc1nc(O[C@H]2CCC[C@@H](C(F)(F)F)C2)c(F)cc1CNC(=O)[C@@H]1CCCN1` (relative stereo) [Example 88, (2S)—N-[[5-Fluoro-2-methoxy-6-[(1S,3R)-3-(trifluoromethyl)cyclohexoxy]-3-pyridyl]methyl]pyrrolidine-2-carboxamide Hydrochloride]: on 5-HT2C receptor, the half-maximal effective concentration (EC50) was below 20 nM and the Emax is above 70%. Besides, the CLint scaled at 0.5 μM in series [1] was 5 to 50 L/h/kg.
The like results for `COc1nc(OC[C@H]2CCC(F)(F)C2)c(F)cc1CNC(=O)[C@@H]1CCCN1` [Example 32, (2S)—N-[[6-[[(1S)-3,3-Difluorocyclopentyl]methoxy]-5-fluoro-2-methoxy-3-pyridyl]methyl]pyrrolidine-2-carboxamide; Fumaric Acid] were, in that order, below 20 nM, 50 to 70% and below 5 L/h/kg.
The like results for `COc1nc(OC2CCC(C(C)(F)F)CC2)c(F)cc1CNC(=O)[C@@H]1CCCN1` (stereo partly drawn) [Example 72, (2S)—N-((6-((4-(1,1-Difluoroethyl)cyclohexyl)oxy)-5-fluoro-2-methoxypyridin-3-yl)methyl)pyrrolidine-2-carboxamide 2,2,2-trifluoroacetate] were, in that order, below 20 nM, above 70% and 5 to 50 L/h/kg.
The like results for `COc1nc(OC2CC(F)(F)C2)c(F)cc1CNC(=O)[C@@H]1C[C@@H](F)CN1` [Example 94, (2S,4R)—N-[[6-(3,3-Difluorocyclobutoxy)-5-fluoro-2-methoxy-3-pyridyl]methyl]-4-fluoro-pyrrolidine-2-carboxamide Hydrochloride] were, in that order, below 20 nM, above 70% and below 5 L/h/kg.
With `COc1nc(OC2CCC(C(F)(F)F)CC2)c(F)cc1CNC(=O)[C@@H]1C[C@@H](C)CN1C` (stereo partly drawn) [Example 62, (2S,4R)—N-[[5-Fluoro-2-methoxy-6-[4-(trifluoromethyl)cyclohexoxy]-3-pyridyl]methyl]-1,4-dimethyl-pyrrolidine-2-carboxamide Hydrochloride], at 5-HT2C receptor, the EC50 was 20 to 200 nM and the Emax was above 70%. Further, the CLint scaled at 0.5 μM in series [1] lay within 50 to 500 L/h/kg.
On to `COc1nc(OC2CCC(C(F)(F)F)CC2)c(F)cc1CNC(=O)[C@@H]1CCN1` (stereo partly drawn) [Example 36, (2S)—N-[[5-Fluoro-2-methoxy-6-[4-(trifluoromethyl)cyclohexoxy]-3-pyridyl]-methyl]azetidine-2-carboxamide; Succinic Acid], for which, on 5-HT2C receptor, the half-maximal effective concentration (EC50) is below 20 nM and the Emax lay in the range of 50 to 70%. Further, the CLint scaled at 0.5 μM in series [1] fell in the range of 5 to 50 L/h/kg.
As to `C=CCN(Cc1ccccc1)c1nc(OC)c(CNC(=O)[C@@H]2CCCN2)cc1F` [Example 150, (2S)—N-[[6-[N-Allyl-N-benzyl-amino]-5-fluoro-2-methoxy-3-pyridyl]methyl]-pyrrolidine-2-carboxamide Hydrochloride], at 5-HT2C receptor, the EC50 fell in the range of 20 to 200 nM and the Emax is above 70%. The CLint scaled at 0.5 μM in series [1] fell in the range of 5 to 50 L/h/kg.
As to `COc1nc(N2CC(C)(Oc3ccccc3)C2)c(F)cc1CNC(=O)[C@@H]1CCCN1` [Example 176, (2S)—N-[[5-Fluoro-2-methoxy-6-(3-methyl-3-phenoxy-azetidin-1-yl)-3-pyridyl]methyl]pyrrolidine-2-carboxamide; 2,2,2-trifluoroacetic Acid], at 5-HT2C receptor, the EC50 was below 20 nM and the Emax was above 70%. Further, the CLint scaled at 0.5 μM in series [1] fell in the range of 5 to 50 L/h/kg.
The like results for `COc1nc(OCC(F)(F)F)c(F)cc1CNC(=O)[C@@H]1CCCN1C` [Example 100, (2S)—N-[[5-Fluoro-2-methoxy-6-(2,2,2-trifluoroethoxy)-3-pyridyl]methyl]-1-methyl-pyrrolidine-2-carboxamide Hydrochloride] were, in that order, below 20 nM, above 70% and below 5 L/h/kg.
The like results for `COc1nc(NC2CCC(F)(F)CC2)c(F)cc1CNC(=O)[C@@H]1CCCN1` [Example 126, (2S)—N-[[6-[(4,4-Difluorocyclohexyl)amino]-5-fluoro-2-methoxy-3-pyridyl]methyl]pyrrolidine-2-carboxamide; 2,2,2-trifluoroacetic Acid] were, in that order, below 20 nM, above 70% and below 5 L/h/kg.
The like results for `COc1nc(OC2CCC(C(F)(F)F)CC2)c(F)cc1CNC(=O)[C@@H]1C[C@@H](F)CN1` (stereo partly drawn) [Example 35, (2S,4R)-4-Fluoro-N-[[5-fluoro-2-methoxy-6-[4-(trifluoromethyl)cyclohexoxy]-3-pyridyl]methyl]pyrrolidine-2-carboxamide; Fumaric Acid] were, in that order, below 20 nM, above 70% and below 5 L/h/kg.
